27 molecules from patent US20230322715A1, “BROAD SPECTRUM ANTI-CANCER COMPOUNDS” (The Regents of the University of California, priority 2019, published 2023) can be followed below.

YTHDF2, sequence (Q9Y5A9 whole entry): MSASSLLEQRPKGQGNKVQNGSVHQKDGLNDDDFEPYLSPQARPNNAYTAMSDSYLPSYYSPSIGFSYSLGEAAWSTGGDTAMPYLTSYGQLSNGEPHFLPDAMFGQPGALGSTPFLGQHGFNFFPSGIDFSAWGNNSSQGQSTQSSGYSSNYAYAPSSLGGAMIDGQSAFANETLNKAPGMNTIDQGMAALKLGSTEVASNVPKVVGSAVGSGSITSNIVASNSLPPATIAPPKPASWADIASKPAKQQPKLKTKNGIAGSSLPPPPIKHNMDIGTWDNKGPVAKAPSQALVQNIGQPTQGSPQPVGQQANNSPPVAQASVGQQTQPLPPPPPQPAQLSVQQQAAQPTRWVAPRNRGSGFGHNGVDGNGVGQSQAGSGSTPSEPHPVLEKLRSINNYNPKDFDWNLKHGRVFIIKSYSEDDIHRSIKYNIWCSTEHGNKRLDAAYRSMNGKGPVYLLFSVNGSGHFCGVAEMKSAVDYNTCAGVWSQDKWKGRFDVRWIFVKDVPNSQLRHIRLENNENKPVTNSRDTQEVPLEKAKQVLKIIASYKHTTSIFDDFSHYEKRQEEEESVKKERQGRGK
ALKBH5, sequence (Q6P6C2 whole entry): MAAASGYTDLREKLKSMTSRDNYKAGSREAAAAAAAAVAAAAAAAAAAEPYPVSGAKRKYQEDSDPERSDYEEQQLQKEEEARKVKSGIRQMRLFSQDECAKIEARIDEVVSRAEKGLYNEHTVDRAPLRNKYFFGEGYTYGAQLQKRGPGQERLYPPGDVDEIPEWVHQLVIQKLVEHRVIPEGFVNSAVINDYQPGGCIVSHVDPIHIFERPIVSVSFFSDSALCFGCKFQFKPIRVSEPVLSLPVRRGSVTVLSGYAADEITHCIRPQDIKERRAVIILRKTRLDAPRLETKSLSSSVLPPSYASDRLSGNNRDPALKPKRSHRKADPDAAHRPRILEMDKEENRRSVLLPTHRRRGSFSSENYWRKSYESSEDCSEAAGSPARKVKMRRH

The target in one data set is ALKBH5 (Homo sapiens (Human), UniProt Q6P6C2). Kind of data set: Fluorescence enzymatic inhibition assay (m6A7-Broccoli RNA / DFHBI-1T) against ALKBH5. It counts as biochemical. The following applies: m6A7-Broccoli fluorescence assay, 0.250 μM ALKBH5; read-out: Enzymatic IC50 ALKBH5. On the procedure:
(§1) Inhibitors were added in concentrations ranging from 0.008-40 μM; all inhibitors were dissolved in DMSO and added to a final concentration of 0.2% DMSO. […] After incubation at room temperature for 2 hours, the plates were left at 4° C. overnight (16 hours) to allow DFHBI-1T to bind to A7-Broccoli RNA. […] Sigmoidal dose-response curves were fitted in GraphPad Prism 6. All assays were performed in triplicate, with additional repetitions added as necessary.
One may read the IC50 as the concentration that inhibits the measured activity by half. Regarding `Fc1ccc2c(CNCC3(N4CCCC4)COC3)c[nH]c2c1` [TR-FTO-12], the 50% inhibitory concentration (IC50) turned out to be 2.3 µM.
Still for that read-out and setting: for `c1ccc2c(CNCC3(N4CCCC4)COC3)c[nH]c2c1` [TR-FTO-13] the value was over 40 µM; for `COc1cccc2c(CNCC3(N4CCCC4)COC3)c[nH]c12` [TR-FTO-14], over 40 µM; for `Fc1cccc2c(CNCC3(N4CCCC4)COC3)c[nH]c12` [TR-FTO-16], 0.87 µM.
As for `Fc1cccc2[nH]cc(CNCC3(N4CCCC4)COC3)c12` [TR-FTO-17], the IC50 is 2.5 µM.
As to `c1cc2c(cc1CNCC1(N3CCCC3)COC1)OCCO2` [TR-FTO-27], the concentration for half-maximal inhibition (IC50) was 5.9 µM.
On to `Cc1ccc(CNCC2(N3CCCC3)COC2)cc1C` [TR-FTO-30], for which the IC50 was 9.9 µM.
The same measure, in the same setting: for `c1ccc(-c2ccc(CNCC3(N4CCCC4)COC3)o2)cc1` [TR-FTO-35] the value was 55 µM; for `c1cc2cc(CNCC3(N4CCCC4)COC3)ccc2[nH]1` [TR-FTO-37], 3.3 µM.
For the molecule `c1ccc(-c2ccc(CNCC3(N4CCCC4)COC3)s2)cc1` [TR-FTO-38], the half-inhibitory concentration (IC50) turned out to be 3.4 µM.
On the same count and under the same terms, for `FC(F)(F)Sc1ccc(CNCC2(N3CCCC3)COC2)cc1` [TR-FTO-40] the value was 3 µM; for `Cc1ccc2c(CNCC3(N4CCCC4)COC3)c[nH]c2c1` [TR-FTO-42], 13.4 µM.
Consider `Fc1ccc2[nH]cc(CNCC3(N4CCC(F)C4)COC3)c2c1` (stereo not drawn) [TR-FTO-45], for which the IC50 was 30.5 µM.
Turning to `FC1CCN(C2(CNCc3c[nH]c4ccccc34)COC2)C1` (stereo not drawn) [TR-FTO-47], the IC50 is over 40 µM.

Test system in the next data set: not listed separately
Kind of data set: elogD / log D determination.
Settings: not given
As usually defined, the chromatographic logD is a lipophilicity value derived from retention on a column. A higher chromatographic logD goes with a more lipophilic compound. Take `O=C(C1CC1)N1CCN(S(=O)(=O)c2ccc(OC(F)(F)F)cc2)CC1` [TR-ALKBH5-41]: the chromatographic logD is 0.79.
With `COc1cccc2c(CNCC3(N4CCCC4)COC3)c[nH]c12` [TR-FTO-14], the elogD is given as 0.40.
On the same count and under the same terms, for `c1cc2c(cc1CNCC1(N3CCCC3)COC1)OCCO2` [TR-FTO-27] the value was 0.55.
Same read-out and setting: then `Cc1ccc(CNCC2(N3CCCC3)COC2)cc1C` [TR-FTO-30], with 0.87; and `c1ccc(-c2ccc(CNCC3(N4CCCC4)COC3)o2)cc1` [TR-FTO-35], with 1.14; and `c1cc2cc(CNCC3(N4CCCC4)COC3)ccc2[nH]1` [TR-FTO-37], with 0.75.
The molecule `c1ccc(-c2ccc(CNCC3(N4CCCC4)COC3)s2)cc1` [TR-FTO-38] registered an elogD of 1.57.
Same read-out and setting: then `FC(F)(F)Sc1ccc(CNCC2(N3CCCC3)COC2)cc1` [TR-FTO-40], with 1.29.
As for `Fc1ccc2c(CNCC3(N4CCC(F)C4)COC3)c[nH]c2c1` (stereo not drawn) [TR-FTO-44], the chromatographic logD came out at 0.95.
For `Fc1ccc2[nH]cc(CNCC3(N4CCC(F)C4)COC3)c2c1` (stereo not drawn) [TR-FTO-45], the elogD amounted to 1.03.

Still in this data set, the particulars now being: Table 800 compounds.
Turning to `O=S(=O)(Nc1ccc(Cl)c(Cl)c1)c1ccc(OC(F)(F)F)cc1` [TR-ALKBH5-33], the elogD came to 1.24.

In another data set the target is FTO (Homo sapiens (Human), UniProt Q9C0B1). As to the kind of experiment: Fluorescence enzymatic inhibition assay (m6A7-Broccoli RNA / DFHBI-1T) against FTO. The following applies: m6A7-Broccoli fluorescence assay, 0.250 μM FTO, inhibitor up to 40 μM, triplicate; read-out: Enzymatic IC50 FTO. The data set is classed as biochemical. On the procedure: In order to determine their efficacy as FTO inhibitors, the compounds were screened by a fluorescence enzymatic inhibition assay developed previously by the Jaffrey lab.^44 Briefly, a nonfluorescent methylated RNA substrate termed “m6A7-Broccoli” is incubated with FTO in the presence of 2-oxoglutarate (300 μM), (NH4)2Fe(SO4)2·6H2O (300 μM), and L-ascorbate (2 mM) for 2 hours at room temperature in reaction buffer (50 mM NaHEPES, pH 6).
FTO, sequence (Q9C0B1 whole entry): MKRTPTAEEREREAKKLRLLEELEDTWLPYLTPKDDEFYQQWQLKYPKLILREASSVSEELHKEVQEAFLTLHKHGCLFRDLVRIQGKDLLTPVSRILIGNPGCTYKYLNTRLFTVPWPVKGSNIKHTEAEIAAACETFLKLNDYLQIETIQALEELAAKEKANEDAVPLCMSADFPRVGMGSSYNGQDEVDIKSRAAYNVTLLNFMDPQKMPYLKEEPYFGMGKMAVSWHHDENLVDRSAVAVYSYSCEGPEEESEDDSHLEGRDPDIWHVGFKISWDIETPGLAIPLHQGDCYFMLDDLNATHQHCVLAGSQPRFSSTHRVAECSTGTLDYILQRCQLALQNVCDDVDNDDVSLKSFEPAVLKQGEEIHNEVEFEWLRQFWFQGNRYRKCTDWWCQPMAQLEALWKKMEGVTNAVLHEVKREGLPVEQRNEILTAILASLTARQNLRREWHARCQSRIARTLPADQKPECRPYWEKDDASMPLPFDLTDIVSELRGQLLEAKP
as §1
On to `c1ccc2c(CNCC3(N4CCCC4)COC3)c[nH]c2c1` [TR-FTO-13], for which the concentration for half-maximal inhibition (IC50) came to 1000 nM.
On the same count and under the same terms, then `Fc1cccc2c(CNCC3(N4CCCC4)COC3)c[nH]c12` [TR-FTO-16], with 2200 nM; and `Fc1cccc2[nH]cc(CNCC3(N4CCCC4)COC3)c12` [TR-FTO-17], with 1300 nM.
On the same count and under the same terms, then `Cc1ccc2c(CNCC3(N4CCCC4)COC3)c[nH]c2c1` [TR-FTO-42], with 3000 nM; and `FC1CCN(C2(CNCc3c[nH]c4ccccc34)COC2)C1` (stereo not drawn) [TR-FTO-47], with 2100 nM.

Still in this data set, the particulars now being: read-out: Enzymatic IC50 FTO.
As to `COc1cc(NC(=O)C2CC(Oc3ccccc3)CN2C(=O)c2ccccc2OC)cc(OC)c1` (stereo not drawn) [TR-FTO 2-01], the IC50 turned out to be 610 ± 170 nM.
On the same count and under the same terms, for `COc1ccccc1C(=O)N1CC(Oc2ccccc2)CC1C(=O)Nc1ccc(C)c(C)c1` (stereo not drawn) [TR-FTO 2-02] the value was 190 ± 30 nM; for `COc1ccc(CNC(=O)C2CC(Oc3ccccc3)CN2C(=O)c2ccccc2OC)cc1` (stereo not drawn) [TR-FTO 2-03], 1240 ± 650 nM; for `COc1ccc(CNC(=O)C2CC(Oc3ccccc3)CN2C(=O)c2ccccc2OC)c(OC)c1` (stereo not drawn) [TR-FTO 2-04], 6670 ± 2310 nM.
Still for that read-out and setting: for `COc1ccccc1C(=O)N1CC(Oc2ccccc2)CC1C(=O)Nc1ccc(C(C)=O)cc1` (stereo not drawn) [TR-FTO 2-05] the value was 8310 ± 2070 nM.
Take `COc1ccccc1C(=O)N1CC(Oc2ccccc2)CC1C(=O)NCc1ccccn1` (stereo not drawn) [TR-FTO 2-06]: the IC50 came out at 12500 ± 2700 nM.
Still for that read-out and setting: for `COc1ccccc1C(=O)N1CC(Oc2ccccc2)CC1C(=O)NCc1cccnc1` (stereo not drawn) [TR-FTO 2-07] the value was 170 ± 30 nM; for `COc1ccccc1C(=O)N1CC(Oc2ccccc2)CC1C(=O)Nc1ccccc1SC` (stereo not drawn) [TR-FTO 2-08], 10300 ± 2290 nM.
The same measure, in the same setting: then `COc1ccccc1C(=O)N1CC(Oc2ccccc2)CC1C(=O)Nc1cccc(F)c1O` (stereo not drawn) [TR-FTO 2-09], with over 40000 nM.

The target in a further data set is YTHDF2 (Homo sapiens (Human), UniProt Q9Y5A9). As to the kind of experiment: In vitro FRET assay for binding affinities of YTH inhibitors, YTHDF2. The following applies: Ki values for YTH library against YTHDF2; read-out: Ki. The source says:
FIG. 8-2 depicts possible design and synthesis of compound libraries. In Vitro FRET assay development could yield a high throughput FRET assay to determine binding affinities for potential YHT inhibitors against YTHDF1, YTHDF2, YTHDF3, or other similar proteins.
Usually Ki stands for the equilibrium dissociation constant of an inhibitor or competing ligand from its target. As to `CN(C)Cc1ccc(NCc2ccc(C(F)(F)F)cc2)nc1` [TR-YTH-20], the inhibitory constant (Ki) was 266 ± 92 pM.

Staying with this data set, now noted: read-out: Ki (pM) YTHDF2.
Regarding `CN(C)Cc1ccc(NCc2ccc(C(F)(F)F)cc2)nc1` [TR-YTH-20], the Ki came out at 266 ± 92 pM.

Still in this data set, the particulars now being: read-out: Ki YTHDF2.
Turning to `CN(C)Cc1ccc(NCc2ccc(C(F)(F)F)cc2)nc1` [TR-YTH-20], the Ki came to 266 ± 92 pM.
